Experimental data as given in patent US20220298138A1, “ENZYME INHIBITORS” (KALVISTA PHARMACEUTICALS LIMITED, priority 2019, published 2022).
pIC50: −log10 of the molar value.

Key:
Human FXIa = biological target: T1, Human FXIa (Homo sapiens, UniProt P03951); test: FXIa inhibitory activity in vitro (fluorogenic substrate Z-Gly-Pro-Arg-AFC), selectivity; type: biochemical; conditions: category scale, 25° C.
T1 construct: Human FXIa (Enzyme Research Laboratories) was incubated; purchased Enzyme Research Laboratories
Protocol: Determination of the % Inhibition for FXIa
Human FXIa (Enzyme Research Laboratories) was incubated at 25° C. with the fluorogenic substrate Z-Gly-Pro-Arg-AFC and various concentrations of the test compound. Residual enzyme activity (initial rate of reaction) was determined by measuring the change in fluorescence at 410 nm and the IC50 value for the test compound was determined.

Human Factor XIIa = biological target: T2, Human Factor XIIa (Homo sapiens, UniProt P00748); test: Factor XIIa inhibitory activity in vitro (fluorogenic substrate H-DPro-Phe-Arg-AFC); type: biochemical; conditions: 25° C., class symbols, read-out: Human FXIIa IC50
T2 construct: purchased Enzyme Research Laboratories
T2 sequence (P00748 373-615 limits assumed): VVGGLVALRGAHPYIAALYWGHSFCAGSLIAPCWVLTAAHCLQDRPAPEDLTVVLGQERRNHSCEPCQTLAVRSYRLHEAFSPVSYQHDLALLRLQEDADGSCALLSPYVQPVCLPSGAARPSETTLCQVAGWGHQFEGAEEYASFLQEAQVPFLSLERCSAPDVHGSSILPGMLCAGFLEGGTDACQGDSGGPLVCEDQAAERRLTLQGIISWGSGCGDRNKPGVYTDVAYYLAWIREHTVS
In short: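 Enzyme incubated at 25° C with fluorogenic substrate H-DPro-Phe-Arg-AFC and a range of compound concentrations. Residual activity taken as initial reaction rate from […], giving IC50.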

T1 sequence (P03951 388-625 limits assumed): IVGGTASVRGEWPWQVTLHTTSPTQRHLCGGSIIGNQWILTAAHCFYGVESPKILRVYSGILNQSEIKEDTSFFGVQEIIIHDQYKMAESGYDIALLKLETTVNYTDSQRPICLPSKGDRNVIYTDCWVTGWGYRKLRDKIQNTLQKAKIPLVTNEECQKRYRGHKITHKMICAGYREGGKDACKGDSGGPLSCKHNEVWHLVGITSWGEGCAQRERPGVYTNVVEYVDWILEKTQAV
T1 sequence (P03951 19-387 partner limits assumed): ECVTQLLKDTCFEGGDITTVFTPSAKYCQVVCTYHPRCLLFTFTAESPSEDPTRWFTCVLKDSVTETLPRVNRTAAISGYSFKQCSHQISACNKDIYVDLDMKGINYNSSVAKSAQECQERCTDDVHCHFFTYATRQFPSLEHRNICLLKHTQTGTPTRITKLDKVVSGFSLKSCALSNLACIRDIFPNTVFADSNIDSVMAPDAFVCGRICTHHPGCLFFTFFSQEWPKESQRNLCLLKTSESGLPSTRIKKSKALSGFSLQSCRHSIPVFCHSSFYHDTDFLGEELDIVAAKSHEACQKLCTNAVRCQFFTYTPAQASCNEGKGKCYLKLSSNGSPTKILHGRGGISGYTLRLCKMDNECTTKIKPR

Row | pIC50 (Human FXIa) | pIC50 (Human Factor XIIa) | SMILES
1 | < 4.40 | 7.00 to 7.52 | CC(C)N[C@H](CCc1ccccc1)C(=O)N[C@@H](C)C(=O)NCc1cc2c(N)nccc2s1 [Example 9.27, (2R)—N-[(1S)-1-[({4-Aminothieno[3,2-c]pyridin-2-yl}methyl)carbamoyl]ethyl]-2-(isopropylamino)-4-phenylbutanamide]
2 | 5.00 to 5.52 | 5.52 to 6.00 | CC(C)[C@H](N)C(=O)N[C@H](CC1CCCC2CCCCC21)C(=O)NCc1ccc(C(=N)N)s1 (some centres unmarked) [Example 71.04]
3 | 5.52 to 6.00 | 5.52 to 6.00 | CCC(C)[C@@H](N)C(=O)N[C@H](CC1CCCC2CCCCC21)C(=O)NCc1ccc(C(=N)N)s1 (some centres unmarked) [Example 71.03]
4 | 4.40 to 5.00 | 6.55 to 7.00 | CN[C@H](CCc1ccccc1)C(=O)N[C@@H](C)C(=O)NCc1ccc2c(N)nccc2c1 [Example 6.10]
5 | 4.40 to 5.00 | 4.40 to 5.00 | CC(C)(O)C(=O)N1C[C@H](c2ccccc2)C[C@H]1C(=O)NCc1ccc2c(N)nccc2c1 [Example 43.04]
6 | 4.40 to 5.00 | 6.55 to 7.00 | C[C@H](NC(=O)[C@H](N)CCc1ccccc1)C(=O)NCc1ccc2c(N)nccc2c1 [Example 6.09]
7 | < 4.40 | 6.00 to 6.55 | C[C@H](NC(=O)[C@H](N)CCc1ccccc1)C(=O)N[C@@H]1CCc2c1ccnc2N [Example 9.02]
8 | < 4.40 | 5.00 to 5.52 | CC(=O)N1C[C@H](c2ccccc2)C[C@H]1C(=O)NCc1ccc2c(N)nccc2c1 [Example 43.01]
9 | 4.40 to 5.00 | > 7.52 | CC(C)N[C@H](CCCCN1CCCCC1)C(=O)N[C@@H](Cc1ccc(F)c(F)c1)C(=O)NCc1ccc2[nH]cc(Cl)c2c1 [Example 27.03]
10 | 4.40 to 5.00 | 4.40 to 5.00 | C[C@H](NC(=O)[C@H](O)CCc1ccccc1)C(=O)NCc1ccc2c(N)nccc2c1 [Example 6.24]
11 | 4.40 to 5.00 | 5.52 to 6.00 | CC(C)N[C@H](CCCCN1CCCCC1)C(=O)N[C@@H](Cc1ccc2ccccc2c1)C(=O)NCc1ccc2c(N)nccc2c1 [Example 12.08]
12 | 4.40 to 5.00 | 5.52 to 6.00 | CC(C)N[C@H](CCc1ccccc1)C(=O)N[C@@H](C)C(=O)NCc1ccc2[nH]cc(Cl)c2c1 [Example 9.08]
13 | < 4.40 | 6.00 to 6.55 | CC(C)N[C@H](CCCCN1CCCCC1)C(=O)N1CC[C@H]1C(=O)NCc1ccc2c(N)nccc2c1 [Example 17.10]
14 | 4.40 to 5.00 | 6.55 to 7.00 | Cc1c(CNC(=O)[C@H](C)NC(=O)[C@H](N)CCc2ccccc2)ccc2c(N)nccc12 [Example 9.06]
15 | 5.00 to 5.52 | 5.00 to 5.52 | C[C@H](NC(=O)[C@@H]1C=C(c2ccccc2)CN1)C(=O)NCc1ccc2c(N)nccc2c1 [Example 45.02]
16 | < 4.40 | 4.40 to 5.00 | C[C@@H]1CCC[C@H](C)N1CC(=O)N1CC(C(=O)NCc2ccc3c(N)nccc3c2)C1 [Example 32.12]
17 | < 4.40 | 5.00 to 5.52 | N[C@H](CCCCN1CCN(c2ncccn2)CC1)C(=O)N1CC[C@H]1C(=O)NCc1ccc2[nH]cc(Cl)c2c1 [Example 10.08]
18 | 4.40 to 5.00 | 6.00 to 6.55 | C[C@@H]1CCC[C@H](C)N1CC(=O)N1C[C@H](c2ccccc2)C[C@H]1C(=O)NCc1ccc2c(N)nccc2c1 [Example 43.02]
19 | < 4.40 | 6.00 to 6.55 | Nc1nccc2cc(CNC(=O)[C@H](Cc3ccc(F)c(F)c3)NC(=O)CCCCCN3CCCCC3)ccc12 [Example 12.11]
20 | < 4.40 | 4.40 to 5.00 | C[C@@H]1CCC[C@H](C)N1CC(=O)NC1(C(=O)NCc2ccc3c(N)nccc3c2)CCOCC1 [Example 39.11]

Row | pIC50 (Human FXIa) | pIC50 (Human Factor XIIa) | SMILES
21 | 5.52 to 6.00 | > 7.52 | CC(C)N[C@H](CCCCN1CCCCC1)C(=O)N[C@@H](Cc1csc2ccccc12)C(=O)NCc1ccc2c(N)nccc2c1 [Example 12.07]
22 | 5.00 to 5.52 | 6.55 to 7.00 | CC(C)N[C@H](CCCCN1CCCCC1)C(=O)N1CCC[C@H]1C(=O)NCc1cnc2[nH]cc(Cl)c2c1 [Example 27.02]
23 | < 4.40 | 7.00 to 7.52 | C[C@@H]1CCC[C@H](C)N1CC(=O)N[C@@H](Cc1ccc(F)c(F)c1)C(=O)NCc1ccc2c(N)nccc2c1 [Example 3.42, (2S)—N-[(1-aminoisoquinolin-6-yl)methyl]-3-(3,4-difluorophenyl)-2-{2-[(2R,6S)-2,6-dimethylpiperidin-1-yl]acetamido}propanamide]
24 | < 4.40 | 4.40 to 5.00 | Nc1nccc2cc(CNC(=O)CNC(=O)c3ccc4ccccc4n3)ccc12 [Example 18.107]
25 | < 4.40 | 5.52 to 6.00 | CC(C)N[C@H](CCc1ccccc1)C(=O)N[C@@H](C)C(=O)NCc1cnc2[nH]cc(Cl)c2c1 [Example 9.03]
26 | < 4.40 | 5.52 to 6.00 | N[C@H](CCCCN1CCc2ccccc2C1)C(=O)N1CC[C@H]1C(=O)NCc1ccc2[nH]cc(Cl)c2c1 [Example 10.09]
27 | 5.00 to 5.52 | 5.52 to 6.00 | C[C@H](NC(=O)[C@H]1C[C@H](c2ccccc2)CN1)C(=O)NCc1ccc2c(N)nccc2c1 [Example 45.03]
28 | < 4.40 | 6.55 to 7.00 | C[C@H](NC(=O)[C@@H](CCc1ccccc1)N1CCCC1)C(=O)NCc1ccc2c(N)nccc2c1 [Example 6.23]
29 | < 4.40 | 5.52 to 6.00 | N[C@H](CCCCN1Cc2ccccc2C1)C(=O)N1CC[C@H]1C(=O)NCc1ccc2[nH]cc(Cl)c2c1 [Example 10.10]
30 | 4.40 to 5.00 | 5.00 to 5.52 | C[C@H](NC(=O)[C@@H](CCc1ccccc1)NC(=O)OC(C)(C)C)C(=O)NCc1ccc2c(N)nccc2c1 [Example 6.25]
31 | < 4.40 | 5.00 to 5.52 | C[C@@H]1CCC[C@H](C)N1CC(=O)NC1(C(=O)NCc2ccc3c(N)nccc3c2)CC1 [Example 39.09]
32 | < 4.40 | 4.40 to 5.00 | N[C@H](CCCCN1CCc2ccccc21)C(=O)N1CC[C@H]1C(=O)NCc1ccc2[nH]cc(Cl)c2c1 [Example 10.14]
33 | 5.00 to 5.52 | 5.00 to 5.52 | C[C@H](NC(=O)[C@H](N)CCCc1ccccc1)C(=O)NCc1ccc2c(N)nccc2c1 [Example 6.18]
34 | < 4.40 | 6.00 to 6.55 | N[C@H](CCc1ccccc1)C(=O)N1CCC1C(=O)NCc1cnc2[nH]cc(Cl)c2c1 (some centres unmarked) [Example 10.02]
35 | 4.40 to 5.00 | 5.52 to 6.00 | Nc1nccc2cc(CNC(=O)[C@@H]3C[C@@H](c4ccccc4)CN3C(=O)[C@@H]3CCCN3)ccc12 [Example 43.06]
36 | 5.00 to 5.52 | 6.00 to 6.55 | CC(C)N[C@H](CCc1ccccc1)C(=O)N[C@@H](C)C(=O)NCc1ccc2c(N)nccc2c1 [Example 6.11]
37 | 4.40 to 5.00 | 5.00 to 5.52 | C[C@@H]1CCC[C@H](C)N1CC(=O)N1CC[C@H]1C(=O)NCc1ccc2c(N)nccc2c1 [Example 32.11]
38 | < 4.40 | 4.40 to 5.00 | Nc1nccc2cc(CNC(=O)CNC(=O)c3ccc(-c4ccncc4)cc3)ccc12 [Example 18.108]
39 | < 4.40 | 6.00 to 6.55 | CC(C)N[C@H](CCCN1CCCCC1)C(=O)N1CC[C@H]1C(=O)NCc1ccc2c(N)nccc2c1 [Example 17.11]
40 | < 4.40 | 6.55 to 7.00 | C[C@H](NC(=O)[C@H](N)CCc1ccccc1)C(=O)NCc1cc2c(N)nccc2s1 [Example 9.07, (2R)—N-[(1S)-1-[({4-Aminothieno[3,2-c]pyridin-2-yl}methyl)carbamoyl]ethyl]-2-amino-4-phenylbutanamide]
